Consider twelve molecules from patent publication US20260070945A1, “MACROCYCLIC IMMUNOMODULATORS” (Bristol-Myers Squibb Company, priority 2022, published 2026).

Where a SMILES comes first, the peptide text is derived from it. Bridges are numbered along the chain shown (N, C = ends). [ ]: non-standard residue; d: D form. The star is where a group is joined. ξ: configuration not given here. Trp(1-CH2COOH) = N[C@@H](Cc1cn(CC(=O)O)c2ccccc12)C(=O)O; Phe(3-CF3) = N[C@@H](Cc1cccc(C(F)(F)F)c1)C(=O)O; Phe(4-COOH) = N[C@@H](Cc1ccc(C(=O)O)cc1)C(=O)O; Bip = N[C@@H](Cc1ccc(-c2ccccc2)cc1)C(=O)O; Phe(3-Me) = Cc1cccc(C[C@H](N)C(=O)O)c1; NH(CH2)12COOH = O=C(O)CCCCCCCCCCCCN*; Val(3-OH) = CC(C)(O)[C@H](N)C(=O)O; Cha = N[C@@H](CC1CCCCC1)C(=O)O; Cit = NC(=O)NCCC[C@H](N)C(=O)O; ξY = NC(Cc1ccc(O)cc1)C(=O)O; Carboxymethyl = O=C(O)C*; NMeA = CN[C@@H](C)C(=O)O; Aun = NCCCCCCCCCCC(=O)O; Dab = NCC[C@H](N)C(=O)O; AEEA = NCCOCCOCC(=O)O

T1 sequence (Q15116 25-288): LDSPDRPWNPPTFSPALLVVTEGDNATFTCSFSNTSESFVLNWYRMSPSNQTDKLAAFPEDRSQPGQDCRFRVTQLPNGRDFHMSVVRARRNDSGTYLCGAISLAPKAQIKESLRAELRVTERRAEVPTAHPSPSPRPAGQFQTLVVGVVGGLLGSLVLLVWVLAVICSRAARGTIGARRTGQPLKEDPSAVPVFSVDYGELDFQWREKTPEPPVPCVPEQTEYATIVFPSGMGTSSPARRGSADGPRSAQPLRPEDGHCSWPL

This experiment concerns the target T1, PD-1/PD-L1 interaction (PE-labeled human PD-L1-Ig binding to Jurkat cell line over-expressing human PD-1) (Homo sapiens, UniProt Q15116).
T1 construct: expressed in transfected cells; host or cells: Jurkat
Kind of experiment: Jurkat-PD-1 Cell Binding High-Content Screening Assay (CBA). Particulars: Jurkat-hPD-1 cells, PE-labeled PD-L1-Ig 20 nM final; read-out: Jurkat HPD1 PDL1 IC50. A digest of the protocol:
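Jurkat cells overexpressing human PD-1 (8×10^3/well, DMEM + 10% FCS) preincubated with compound 2 h at 37 °C, then PE-labelled human PD-L1-Ig (20 nM final) for 1 h. Cells fixed in paraformaldehyde with Hoechst 33342; bound PD-L1 quantified by high-content imaging.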
With `CC(C)C[C@@H]1NC(=O)[C@H](Cc2c[nH]c3ccccc23)NC(=O)[C@H](CC(=O)O)NC(=O)[C@H](Cc2ccc(C(=O)O)cc2)NC(=O)[C@H](Cc2ccc(OCC(=O)O)cc2)NC(=O)CSC[C@@H](C(=O)NCCOCCOCC(=O)NCCCCCCCCCCC(=O)O)NC(=O)[C@H](CCN)NC(=O)[C@H](C(C)(C)O)NC(=O)[C@H](CC2CCCCC2)NC(=O)[C@H](CCN)NC(=O)[C@@H](CC(C)C)NC(=O)[C@H](C)N(C)C(=O)[C@H](C(C)C)NC(=O)[C@H](Cc2ccc(-c3ccccc3)cc2)NC1=O` [Example 1120] ({CH2CO}-Y(Carboxymethyl)[Phe(4-COOH)]DWL[Bip]V[NMeA][dL][Dab][Cha][Val(3-OH)][Dab]C[AEEA][Aun]-OH; thioether N-14), the IC50 amounted to 13.6 nM.

On to `CC(C)C[C@@H]1NC(=O)[C@H](Cc2c[nH]c3ccccc23)NC(=O)[C@H](CC(=O)O)NC(=O)[C@H](Cc2ccc(C(=O)O)cc2)NC(=O)[C@H](Cc2ccc(OCC(=O)O)cc2)NC(=O)CSC[C@@H](C(=O)NCCOCCOCC(=O)NCCCCCCCCCCC(=O)O)NC(=O)[C@H](Cc2cnc[nH]2)NC(=O)[C@H](C(C)(C)O)NC(=O)[C@H](CC2CCCCC2)NC(=O)[C@H](CCN)NC(=O)[C@@H](CC(C)C)NC(=O)[C@H](C)N(C)C(=O)[C@H](C(C)C)NC(=O)[C@H](Cc2ccc(-c3ccccc3)cc2)NC1=O` [Example 1121] ({CH2CO}-Y(Carboxymethyl)[Phe(4-COOH)]DWL[Bip]V[NMeA][dL][Dab][Cha][Val(3-OH)]HC[AEEA][Aun]-OH; thioether N-14), for which the concentration for half-maximal inhibition (IC50) worked out at 8.1 nM.

With `CC(C)C[C@@H]1NC(=O)[C@H](Cc2c[nH]c3ccccc23)NC(=O)[C@H](CC(=O)O)NC(=O)[C@H](Cc2ccc(C(=O)O)cc2)NC(=O)[C@H](Cc2ccc(OCC(=O)O)cc2)NC(=O)CSC[C@@H](C(=O)N[C@@H](CCN)C(=O)NCCOCCOCC(=O)NCCCCCCCCCCC(=O)O)NC(=O)[C@H](CCCNC(N)=O)NC(=O)[C@H](C(C)(C)O)NC(=O)[C@H](CC2CCCCC2)NC(=O)[C@H](CCN)NC(=O)[C@@H](CC(C)C)NC(=O)[C@H](C)N(C)C(=O)[C@H](C(C)C)NC(=O)[C@H](Cc2ccc(-c3ccccc3)cc2)NC1=O` [Example 1122] ({CH2CO}-Y(Carboxymethyl)[Phe(4-COOH)]DWL[Bip]V[NMeA][dL][Dab][Cha][Val(3-OH)][Cit]C[Dab][AEEA][Aun]-OH; thioether N-14), the concentration for half-maximal inhibition (IC50) came to 3.8 nM.

As to `CC(C)C[C@@H]1NC(=O)[C@H](Cc2c[nH]c3ccccc23)NC(=O)[C@H](CC(=O)O)NC(=O)[C@H](Cc2ccc(C(=O)O)cc2)NC(=O)[C@H](Cc2ccc(OCC(=O)O)cc2)NC(=O)CSC[C@@H](C(=O)N[C@@H](CCN)C(=O)NCCOCCOCC(=O)NCCCCCCCCCCC(=O)O)NC(=O)[C@H](CCC(=O)O)NC(=O)[C@H](C(C)(C)O)NC(=O)[C@H](CC2CCCCC2)NC(=O)[C@H](CCN)NC(=O)[C@@H](CC(C)C)NC(=O)[C@H](C)N(C)C(=O)[C@H](C(C)C)NC(=O)[C@H](Cc2ccc(-c3ccccc3)cc2)NC1=O` [Example 1123] ({CH2CO}-Y(Carboxymethyl)[Phe(4-COOH)]DWL[Bip]V[NMeA][dL][Dab][Cha][Val(3-OH)]EC[Dab][AEEA][Aun]-OH; thioether N-14), the IC50 stood at 9.3 nM.

For the molecule `CC(C)C[C@@H]1NC(=O)[C@H](Cc2c[nH]c3ccccc23)NC(=O)[C@H](CC(=O)O)NC(=O)[C@H](Cc2ccc(C(=O)O)cc2)NC(=O)[C@H](Cc2ccc(OCC(=O)O)cc2)NC(=O)CSC[C@@H](C(=O)N[C@@H](CCN)C(=O)NCCOCCOCC(=O)NCCCCCCCCCCC(=O)O)NC(=O)[C@H](CCC(N)=O)NC(=O)[C@H](C(C)(C)O)NC(=O)[C@H](CC2CCCCC2)NC(=O)[C@H](CCN)NC(=O)[C@@H](CC(C)C)NC(=O)[C@H](C)N(C)C(=O)[C@H](C(C)C)NC(=O)[C@H](Cc2ccc(-c3ccccc3)cc2)NC1=O` [Example 1125] ({CH2CO}-Y(Carboxymethyl)[Phe(4-COOH)]DWL[Bip]V[NMeA][dL][Dab][Cha][Val(3-OH)]QC[Dab][AEEA][Aun]-OH; thioether N-14), the IC50 was found to be 9.9 nM.

Take `CC(C)C[C@@H]1NC(=O)[C@H](Cc2c[nH]c3ccccc23)NC(=O)[C@H](CC(=O)O)NC(=O)[C@H](Cc2ccc(C(=O)O)cc2)NC(=O)[C@H](Cc2ccc(OCC(=O)O)cc2)NC(=O)CSC[C@@H](C(=O)N[C@@H](CCN)C(=O)NCCOCCOCC(=O)NCCCCCCCCCCC(=O)O)NC(=O)[C@H](CCC(N)=O)NC(=O)[C@H](C(C)C)NC(=O)[C@H](CC2CCCCC2)NC(=O)[C@H](CCN)NC(=O)[C@@H](CC(C)C)NC(=O)[C@H](C)N(C)C(=O)[C@H](C(C)C)NC(=O)[C@H](Cc2ccc(-c3ccccc3)cc2)NC1=O` [Example 1126] ({CH2CO}-Y(Carboxymethyl)[Phe(4-COOH)]DWL[Bip]V[NMeA][dL][Dab][Cha]VQC[Dab][AEEA][Aun]-OH; thioether N-14): the IC50 stood at 3.4 nM.

With `CC(C)C[C@@H]1NC(=O)[C@H](Cc2c[nH]c3ccccc23)NC(=O)[C@H](CC(=O)O)NC(=O)[C@H](Cc2ccc(C(=O)O)cc2)NC(=O)[C@H](Cc2ccc(OCC(=O)O)cc2)NC(=O)CSC[C@@H](C(=O)N[C@@H](CCN)C(=O)NCCOCCOCC(=O)NCCCCCCCCCCC(=O)O)NC(=O)[C@H](CCN)NC(=O)[C@H](C(C)(C)O)NC(=O)[C@H](CC2CCCCC2)NC(=O)[C@H](CCN)NC(=O)[C@@H](CC(C)C)NC(=O)[C@H](C)N(C)C(=O)[C@H](C(C)C)NC(=O)[C@H](Cc2ccc(-c3ccccc3)cc2)NC1=O` [Example 1127] ({CH2CO}-Y(Carboxymethyl)[Phe(4-COOH)]DWL[Bip]V[NMeA][dL][Dab][Cha][Val(3-OH)][Dab]C[Dab][AEEA][Aun]-OH; thioether N-14), the half-maximal inhibitory concentration (IC50) was 3.8 nM.

On to `CC(C)C[C@@H]1NC(=O)[C@H](Cc2c[nH]c3ccccc23)NC(=O)[C@H](CC(=O)O)NC(=O)[C@H](Cc2ccc(C(=O)O)cc2)NC(=O)[C@H](Cc2ccc(OCC(=O)O)cc2)NC(=O)CSC[C@@H](C(=O)N[C@@H](CCN)C(=O)NCCOCCOCC(=O)NCCCCCCCCCCC(=O)O)NC(=O)[C@H](Cc2cnc[nH]2)NC(=O)[C@H](C(C)(C)O)NC(=O)[C@H](CC2CCCCC2)NC(=O)[C@H](CCN)NC(=O)[C@@H](CC(C)C)NC(=O)[C@H](C)N(C)C(=O)[C@H](C(C)C)NC(=O)[C@H](Cc2ccc(-c3ccccc3)cc2)NC1=O` [Example 1129] ({CH2CO}-Y(Carboxymethyl)[Phe(4-COOH)]DWL[Bip]V[NMeA][dL][Dab][Cha][Val(3-OH)]HC[Dab][AEEA][Aun]-OH; thioether N-14), for which the IC50 turned out to be 6.7 nM.

Turning to `CC(C)C[C@@H]1NC(=O)[C@H](Cc2c[nH]c3ccccc23)NC(=O)[C@H](CC(=O)O)NC(=O)[C@H](Cc2ccc(C(=O)O)cc2)NC(=O)[C@H](Cc2ccc(OCC(=O)O)cc2)NC(=O)CSC[C@@H](C(=O)N[C@@H](CCN)C(=O)NCCOCCOCC(=O)NCCCCCCCCCCC(=O)O)NC(=O)[C@H](Cc2cnc[nH]2)NC(=O)[C@H](C(C)C)NC(=O)[C@H](CC2CCCCC2)NC(=O)[C@H](CCN)NC(=O)[C@@H](CC(C)C)NC(=O)[C@H](C)N(C)C(=O)[C@H](C(C)C)NC(=O)[C@H](Cc2ccc(-c3ccccc3)cc2)NC1=O` [Example 1130] ({CH2CO}-Y(Carboxymethyl)[Phe(4-COOH)]DWL[Bip]V[NMeA][dL][Dab][Cha]VHC[Dab][AEEA][Aun]-OH; thioether N-14), the IC50 amounted to 12.3 nM.

Regarding `Cc1cccc(C[C@@H]2NC(=O)[C@H](CC(=O)O)NC(=O)[C@H](Cc3cn(CC(=O)O)c4ccccc34)NC(=O)[C@H](CCN)NC(=O)CSC[C@@H](C(=O)N[C@@H](CCN)C(=O)NCCCCCCCCCCC(=O)O)NC(=O)[C@H]([C@@H](C)O)NC(=O)[C@H](C(C)C)NC(=O)[C@H](CC3CCCCC3)NC(=O)[C@H](CCN)NC(=O)[C@@H](CC(C)C)NC(=O)[C@H](C)N(C)C(=O)[C@H](Cc3ccc(OCC(=O)O)cc3)NC(=O)[C@H](Cc3ccc(-c4ccccc4)cc3)NC(=O)C(Cc3ccc(OCC(=O)O)cc3)NC2=O)c1` (stereo partly drawn) [Example 1133] ({CH2CO}-[Dab][Trp(1-CH2COOH)]D[Phe(3-Me)][ξY](Carboxymethyl)[Bip]Y(Carboxymethyl)[NMeA][dL][Dab][Cha]VTC[Dab][Aun]-OH; thioether N-14), the half-inhibitory concentration (IC50) worked out at 29.3 nM.

For `COC[C@@H]1NC(=O)CSC[C@@H](C(=O)N[C@@H](CCN)C(=O)NCCCCCCCCCCCCC(=O)O)NC(=O)[C@H](CC(=O)O)NC(=O)[C@H](C(C)(C)O)NC(=O)[C@H](CC2CCCCC2)NC(=O)[C@H](CCN)NC(=O)[C@@H](CC(C)C)NC(=O)[C@H](C)N(C)C(=O)[C@H](CCC(N)=O)NC(=O)[C@H](Cc2ccc(-c3ccccc3)cc2)NC(=O)[C@H](Cc2ccc(C(=O)O)cc2)NC(=O)[C@H](Cc2cccc(C(F)(F)F)c2)NC(=O)[C@H](CC(=O)O)NC(=O)[C@H](Cc2ccc(OCC(=O)O)cc2)NC1=O` [Example 1134] ({CH2CO}-S(Me)Y(Carboxymethyl)D[Phe(3-CF3)][Phe(4-COOH)][Bip]Q[NMeA][dL][Dab][Cha][Val(3-OH)]DC[Dab]-{NH(CH2)12COOH}; thioether N-14), the IC50 stood at 15.3 nM.

As to `COC[C@@H]1NC(=O)CSC[C@@H](C(=O)N[C@@H](CCN)C(=O)NCCCCCCCCCCCCC(=O)O)NC(=O)[C@H](CCC(=O)O)NC(=O)[C@H](C(C)C)NC(=O)[C@H](CC2CCCCC2)NC(=O)[C@H](CCN)NC(=O)[C@@H](CC(C)C)NC(=O)[C@H](C)N(C)C(=O)[C@H](CCC(N)=O)NC(=O)[C@H](Cc2ccc(-c3ccccc3)cc2)NC(=O)[C@H](Cc2ccc(C(=O)O)cc2)NC(=O)[C@H](Cc2cccc(C(F)(F)F)c2)NC(=O)[C@H](CC(=O)O)NC(=O)[C@H](Cc2ccc(OCC(=O)O)cc2)NC1=O` [Example 1135] ({CH2CO}-S(Me)Y(Carboxymethyl)D[Phe(3-CF3)][Phe(4-COOH)][Bip]Q[NMeA][dL][Dab][Cha]VEC[Dab]-{NH(CH2)12COOH}; thioether N-14), the IC50 was determined as 12.5 nM.

By IC50 is commonly meant the concentration at which inhibition is half-maximal.
